Laboratory results published in patent US4200573A, “Derivatives of 3-carboxyrifamycin S and SV and process for their preparation” (Alfa Farmaceutici, S.p.A., priority 1977, dated 1980).
≈ marks a conversion by molar mass, not a printed value. Entries after “also recorded” stand apart in the source; their conditions may differ.

How the values were obtained:
[1] = chemical stability (observation); type: physicochemical
St. Aureus 209 P = experiment: Minimal inhibiting concentration (MIC), in vitro antibacterial activity, St. Aureus 209 P; type: cell-based; conditions: Staphylococcus aureus
Excerpt: (§1) The derivatives of 3-carboxyrifamycins S and SV according to the present invention have an antibacterial activity in vitro as shown by the data in the examples where are reported the minimal inhibiting concentrations (MIC) expressed in mcg/ml against different patogenic microorganisms.

Klebsiella Ottaviani = experiment: Minimal inhibiting concentration (MIC), in vitro antibacterial activity, Klebsiella Ottaviani; type: cell-based; conditions: read-out: Minimal inhibiting concentration (MIC)
Excerpt: as §1

Salmonella p typhi B = experiment: Minimal inhibiting concentration (MIC), in vitro antibacterial activity, Salmonella p typhi B; type: cell-based; conditions: read-out: Minimal inhibiting concentration (MIC)
Excerpt: as §1

E. Coli ML/35 = experiment: Minimal inhibiting concentration (MIC), in vitro antibacterial activity, E. Coli ML/35; type: cell-based; conditions: Escherichia coli
Excerpt: as §1

Row | Compound | stability [1] | MIC (St. Aureus 209 P) | MIC (Klebsiella Ottaviani) | MIC (Salmonella p typhi B) | MIC (E. Coli ML/35)
1 | 3-carboxyrifamycin | instable product and gives very easily rise to reaction of decarboxylation; also recorded: unstable product which easily decomposes |  |  |  | 
2 | COC(=O)C1=C2NC(=O)/C(C)=C\C=C\[C@H](C)[C@H](O)[C@@H](C)[C@@H](O)[C@@H](C)[C@H](OC(C)=O)[C@H](C)[C@@H](OC)/C=C/O[C@@]3(C)Oc4c(C)c(O)c(c(c4C3=O)C1=O)C2=O [Example 6, 3-(carbomethoxy)rifamycin S] |  | 0.05 to 0.1 µg/mL (≈ 0.0663 to 0.133 µM) | 25 to 50 µg/mL (≈ 33.2 to 66.3 µM) | > 50 µg/mL | 25 to 50 µg/mL (≈ 33.2 to 66.3 µM)
3 | CO[C@H]1/C=C/O[C@@]2(C)Oc3c(C)c(O)c4c(c3C2=O)C(=O)C(C(=O)N2CCN(C)CC2)=C(NC(=O)/C(C)=C\C=C\[C@H](C)[C@H](O)[C@@H](C)[C@@H](O)[C@@H](C)[C@H](OC(C)=O)[C@@H]1C)C4=O [Example 8, 3-(N-methyl N'-piperazinylcarbonyl)rifamycin S] |  | 0.1 to 0.25 µg/mL (≈ 0.122 to 0.304 µM) | > 50 µg/mL | > 50 µg/mL | > 50 µg/mL
4 | CO[C@H]1/C=C/O[C@@]2(C)Oc3c(C)c(O)c4c(c3C2=O)C(=O)C(C(=O)NN(C)C)=C(NC(=O)/C(C)=C\C=C\[C@H](C)[C@H](O)[C@@H](C)[C@@H](O)[C@@H](C)[C@H](OC(C)=O)[C@@H]1C)C4=O [Example 10, 3-(NN-dimethyl N-hydrazinocarbonyl)rifamycin S] |  |  | > 50 µg/mL | > 50 µg/mL | > 50 µg/mL
5 | CO[C@H]1/C=C/O[C@@]2(C)Oc3c(C)c(O)c4c(c3C2=O)C(=O)C(C(=O)OCC(O)CO)=C(NC(=O)/C(C)=C\C=C\[C@H](C)[C@H](O)[C@@H](C)[C@@H](O)[C@@H](C)[C@H](OC(C)=O)[C@@H]1C)C4=O (some centres unmarked) [Example 12, 3-(1 glyceroxycarbonyl)rifamycin S] |  | ~0.5 µg/mL (≈ 0.614 µM) | > 100 µg/mL | > 100 µg/mL | > 100 µg/mL
6 | CO[C@H]1/C=C/O[C@@]2(C)Oc3c(C)c(O)c4c(c3C2=O)C(=O)C(C(=O)N(C)C)=C(NC(=O)/C(C)=C\C=C\[C@H](C)[C@H](O)[C@@H](C)[C@@H](O)[C@@H](C)[C@H](OC(C)=O)[C@@H]1C)C4=O [Example 13, 3-(N,N dimethylaminocarbonyl)rifamycin S] |  |  | > 50 µg/mL | > 50 µg/mL | > 50 µg/mL
7 | CO[C@H]1/C=C/O[C@@]2(C)Oc3c(C)c(O)c4c(c3C2=O)C(=O)C(C(=O)N(C)N2CCCCC2)=C(NC(=O)/C(C)=C\C=C\[C@H](C)[C@H](O)[C@@H](C)[C@@H](O)[C@@H](C)[C@H](OC(C)=O)[C@@H]1C)C4=O [Example 14, 3-((N-(N'-piperidinyl)N-methyl)aminocarbonyl)rifamycin S] |  | ~0.03 µg/mL (≈ 0.0359 µM) | > 50 µg/mL | > 50 µg/mL | > 50 µg/mL
